Source: PubChem BioAssay (NCI)
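Step 1: Grow cells in 96-well plates. Step 2: Expose to compound for 48 hours at 5 concentrations. Step 3: Interpolate endpoints linearly; if unreached, use highest concentration. GI50 is the concentration that inhibits growth by half. TGI is the concentration that stops growth completely.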

Experiments:
Test in all cases: NCI anticancer screen, dose series, 48 h
HCT-116 colon = test system: HCT-116 colon
RPMI-8226 leukemia = test system: RPMI-8226 leukemia
UO-31 renal = test system: UO-31 renal
M14 melanoma = test system: M14 melanoma
HL-60(TB) leukemia = test system: HL-60(TB) leukemia
SNB-19 CNS = test system: SNB-19 CNS
OVCAR-8 ovarian = test system: OVCAR-8 ovarian
OVCAR-5 ovarian = test system: OVCAR-5 ovarian
BT-549 breast = test system: BT-549 breast
HOP-92 NSCLC = test system: HOP-92 NSCLC

Structure (SMILES)	GI50 (HCT-116 colon)	TGI (HCT-116 colon)	GI50 (RPMI-8226 leukemia)	TGI (RPMI-8226 leukemia)	GI50 (UO-31 renal)	TGI (UO-31 renal)	GI50 (M14 melanoma)	TGI (M14 melanoma)	GI50 (HL-60(TB) leukemia)	TGI (HL-60(TB) leukemia)	GI50 (SNB-19 CNS)	TGI (SNB-19 CNS)	GI50 (OVCAR-8 ovarian)	TGI (OVCAR-8 ovarian)	GI50 (OVCAR-5 ovarian)	TGI (OVCAR-5 ovarian)	GI50 (BT-549 breast)	TGI (BT-549 breast)	TGI (HOP-92 NSCLC)	GI50 (HOP-92 NSCLC)
CCCCN(CCCC)CCc1c(C)cc(C)c(CCN(CCCC)CCCC)c1O	1.87 µM	8.34 µM	2.24 µM	7.13 µM	2.69 µM	16.8 µM	3.15 µM	20.8 µM	2.51 µM	8.17 µM	3.04 µM	> 100 µM	3.28 µM	> 100 µM	3.26 µM	> 100 µM	2.78 µM	6.87 µM		
Cc1c(Cl)cccc1NC(=O)/C(Cl)=C(\Cl)C(=O)O		27.4 µM		56.5 µM		32.7 µM		30.9 µM				> 100 µM				30.6 µM			31.6 µM	
C[C@]12CC[C@@H](OC(=O)N(CCCl)N=O)C[C@@H]1CC[C@@H]1[C@@H]2CC[C@]2(C)C(=O)CC[C@@H]12	7.25 µM	30.5 µM	14.8 µM	> 50.8 µM	4.22 µM	18.1 µM	14.7 µM	44.9 µM			0.526 µM	26 µM	7.21 µM	28.5 µM	27.2 µM	57.7 µM	14.2 µM	33.2 µM	35.9 µM	6.79 µM
S=P(N1CCCC1)(N1CC1)N1CC1		> 100 µM		> 100 µM		> 100 µM		> 100 µM		> 100 µM		> 100 µM		> 100 µM		> 100 µM				
NC(=O)c1csc(C2CCC(CO)O2)n1 (stereo not drawn)		> 100 µM		> 100 µM		> 100 µM		> 100 µM		> 100 µM		> 100 µM		> 100 µM		> 100 µM			> 100 µM	
Cc1ccc2sc3ccc(N)cc3c(=O)c2c1		> 100 µM				> 100 µM		> 100 µM		> 100 µM		> 100 µM		> 100 µM		> 100 µM		> 100 µM	98.3 µM	
CS(=O)(=O)NNS(=O)(=O)c1ccc(Cl)cc1		> 100 µM		> 100 µM		> 100 µM		> 100 µM		> 100 µM		> 100 µM		> 100 µM						
COC(=O)c1ccc(C(=O)OC)c2nc3cc(C)ccc3nc12				> 100 µM		> 100 µM		> 100 µM		> 100 µM		> 100 µM		> 100 µM		> 100 µM			> 100 µM	
CCN(CC)CCOc1c(OC)c(Br)cc2c(C)c(C(=O)OC)oc12	1.17 µM	3.15 µM	0.186 µM	0.834 µM	3.19 µM	50 µM	1.18 µM	4.4 µM			2.31 µM	10.7 µM	2.13 µM	7.88 µM	3.14 µM	9.29 µM	1.61 µM	5.62 µM		
Cc1c(C(=O)CC(=O)C(=O)Nc2cc(Cl)ccc2Cl)[n+](=O)c2ccccc2n1[O-]		> 100 µM		57.8 µM		> 100 µM		64.4 µM				> 100 µM		> 100 µM		> 100 µM			> 100 µM	
Clc1ccc(-c2c(C3=NCCN3)nnn2-c2ccccc2)cc1		> 100 µM		> 100 µM		> 100 µM		> 100 µM		> 100 µM		> 100 µM		> 100 µM		> 100 µM			> 100 µM	
O=C1CCN2CCC(=O)c3c2c(cc2ccccc32)N1		> 100 µM		> 100 µM		> 100 µM		> 100 µM				> 100 µM		> 100 µM		> 100 µM				
COc1ccc2ccccc2c1CN1CCOCCOCCN(Cc2c(OC)ccc3ccccc23)CCOCCOCC1		> 59 µM		73.2 µM		> 100 µM		32.5 µM		53.4 µM		> 100 µM		> 100 µM		> 100 µM			> 70 µM	
COc1nc(C)cc2c(=O)n(-c3ccccc3)n(CC(O)CN3CCN(c4ccc(Cl)cc4)CC3)c(=O)c12 (stereo not drawn)	> 50 µM	> 50 µM	> 50 µM	> 50 µM	46.6 µM	> 50 µM	> 50 µM	> 50 µM	> 50 µM	> 50 µM	17.5 µM	> 50 µM			> 50 µM	> 50 µM			18.5 µM	7.08 µM
CCCCCCCCCCCCCC(=O)NCC(OCC)OCC		> 100 µM				> 100 µM		> 100 µM		> 100 µM		> 100 µM		> 100 µM		> 100 µM			> 100 µM	
CCCCN(CC)c1ncnc2ccc(Br)cc12	15.8 µM	36.2 µM	3.71 µM	22.1 µM	19.9 µM	98.7 µM	18.2 µM	34.7 µM			35.2 µM	> 100 µM	14 µM	34.2 µM	20.5 µM	49.8 µM			33.8 µM	9.44 µM
CC(/C=C/NNC1=NC(c2ccccc2)C(c2ccccc2)=NN1)Sc1ccccc1N (stereo not drawn)		21.8 µM		> 100 µM		20.1 µM		10.6 µM		6.45 µM		25.1 µM		19.5 µM		31.3 µM			22.8 µM	
CN1c2ccccc2S(=O)(=O)n2c(CCc3ccccc3)nnc21		> 100 µM				> 100 µM		> 100 µM		> 100 µM		> 100 µM		> 100 µM		> 100 µM		> 100 µM	98.7 µM	
Cc1cccc(N=C2NC(=O)C(CC(=O)Nc3ccc(C)cc3C)S2)c1 (stereo not drawn)		> 100 µM		> 100 µM		> 100 µM		> 100 µM		> 100 µM		> 100 µM		> 100 µM		> 100 µM			> 100 µM	
CCOC(=O)C1=C(Nc2ccc(Cl)c(Cl)c2)OC/C1=N\NC(=O)Cc1ccccc1		> 100 µM		> 100 µM		> 100 µM		> 100 µM		> 100 µM		> 100 µM		> 100 µM		> 100 µM				
CC1(O)CCC2(C)C(=O)C1(C)CCC21OCCO1 (stereo not drawn)				> 100 µM		> 100 µM		> 100 µM		> 100 µM		> 100 µM		> 100 µM		> 100 µM			> 100 µM	
N#Cc1c(C[n+]2ccccc2)c2ccccc2oc1=O		> 100 µM		> 100 µM		> 100 µM		> 100 µM				> 100 µM		> 100 µM		> 100 µM				
